Results: PubChem BioAssay AID687032 (Broad Institute, 2013)
Results filed as inconclusive are left out.

System: IOSE-T80 viability, CellTiterGlo ATP luminescence, 96 h
Test: cytotoxicity in IOSE-T80 ovarian epithelial cells, dose response, selectivity assay for PAX8 inhibitor project, cell-based, cherry-pick (AID 687032)

Compound	AC50
COc1ccc(S(=O)(=O)Nc2ccc3c(c2)C(=O)N([C@H](C)CO)C[C@H](C)[C@@H](CN(C)Cc2ccc(Cl)c(Cl)c2)OCCCC[C@@H](C)O3)cc1	6540 nM
COc1cccc(-c2ccc([C@H]3[C@@H](CO)N(C(=O)Cc4ccccc4)[C@H]3C#N)cc2)c1	< 260 nM
O=S(=O)(c1ccccc1F)N1CC[C@@H]2[C@@H](CO)Nc3ccc(C4=CCCCC4)cc3[C@@H]21	< 260 nM
C[C@H](CO)N1C[C@H](C)[C@H](CN(C)S(=O)(=O)c2ccc(Cl)cc2)OCCCC[C@H](C)Oc2ccc(NC(=O)Nc3ccc(C(F)(F)F)cc3)cc2C1=O	< 260 nM
COc1ccccc1C#Cc1ccc2c(c1)O[C@H](CN(C)Cc1cccnc1)[C@H](C)CN([C@@H](C)CO)S2(=O)=O	3050 nM
C[C@@H]1CN([C@H](C)CO)C(=O)c2cc(NC(=O)Nc3ccc(F)cc3)ccc2O[C@@H](C)CCCCO[C@@H]1CN(C)Cc1ccc2c(c1)OCO2	< 260 nM
C[C@@H]1CCCCO[C@H](CN(C)C(=O)C2CCCCC2)[C@@H](C)CN([C@@H](C)CO)C(=O)c2cc(NC(=O)Nc3ccc(F)cc3)ccc2O1	< 260 nM
COc1ccc(S(=O)(=O)Nc2ccc3c(c2)C(=O)N([C@H](C)CO)C[C@H](C)[C@H](CN(C)Cc2ccc(C(F)(F)F)cc2)OCCCC[C@H](C)O3)cc1	3450 nM
Cc1ccc(S(=O)(=O)Nc2ccc3c(c2)C(=O)N([C@H](C)CO)C[C@@H](C)[C@H](CN(C)Cc2ccc(C(F)(F)F)cc2)OCCCC[C@@H](C)O3)cc1	< 260 nM
C[C@@H]1CN([C@H](C)CO)S(=O)(=O)c2ccc(C#CC3CCCC3)cc2O[C@@H]1CN(C)C(=O)Cc1ccncc1	< 260 nM
O=C(c1cc([N+](=O)[O-])ccc1N1CCOCC1)N1CCN(c2ccccc2)CC1	< 260 nM
O=C(Nc1cccc(NC(=O)c2cccs2)c1)c1ccc([N+](=O)[O-])o1	8620 nM
O=c1cc(-c2ccccc2)oc2ccc3ccccc3c12	< 260 nM
O=C(NC12CC3CC(CC(C3)C1)C2)c1ccc([N+](=O)[O-])o1	< 260 nM
C=C(C)c1nc(Oc2ccccc2)nc(Oc2ccccc2)n1	< 260 nM
C[C@H]1CCCCO[C@H](CN(C)Cc2ccc(C(F)(F)F)cc2)[C@@H](C)CN([C@@H](C)CO)C(=O)c2cc(NS(=O)(=O)c3ccc(Cl)cc3)ccc2O1	< 260 nM
COc1ccc2c(COC(=O)CNC(=O)C34CC5CC(CC(C5)C3)C4)cc(=O)oc2c1	< 260 nM
Nc1nc(=S)c2[nH]cnc2[nH]1	< 260 nM
C[C@@H]1CCCCO[C@@H](CN(C)S(=O)(=O)c2ccc(Cl)cc2)[C@H](C)CN([C@H](C)CO)C(=O)c2cc(NS(=O)(=O)c3ccc(F)cc3)ccc2O1	< 260 nM
C[C@@H]1CCCCO[C@@H](CN(C)C(=O)Nc2cccc3ccccc23)[C@H](C)CN([C@H](C)CO)C(=O)c2cc(NS(=O)(=O)c3ccc(F)cc3)ccc2O1	< 260 nM
Cn1nnnc1Sc1ncnc2scc(-c3cccc(S(C)(=O)=O)c3)c12	8510 nM
O=C(Cc1nnc(NC(=O)c2ccccc2)s1)N/N=C/c1ccco1	< 260 nM
C[C@H](CO)N1C[C@H](C)[C@H](CN(C)S(=O)(=O)c2ccc(Cl)cc2)OCCCC[C@H](C)Oc2ccc(NS(=O)(=O)c3ccc(F)cc3)cc2C1=O	< 260 nM
COc1cc(OC)c2c(-c3cccc(-c4ccc(OC)c(F)c4)c3)cc(=O)oc2c1	10700 nM
COc1ccc(Cn2cc3c(-c4ccc(F)cc4)nnc-3c3cc(OC)c(OC)cc32)cc1	8490 nM
C[C@@H]1CCCCO[C@@H](CN(C)Cc2ccc(C(F)(F)F)cc2)[C@@H](C)CN([C@@H](C)CO)C(=O)c2cc(NS(=O)(=O)c3ccc(F)cc3)ccc2O1	< 235 nM
CC(C)CCCCCCCCCCCCC(=O)NCC(=O)NC1C(C)OC(Nc2ncnc3nc[nH]c23)C(O)C1O (stereo not given)	< 260 nM

Compound	AC50
Cc1nnc(N/N=C/c2cc(C)n(-c3ccc(F)cc3)c2C)n1N	10200 nM
Cc1ccc2c(c1)c1c3n2CCN(CC(N)=O)C3CCC1 (stereo not given)	10200 nM
Cc1ccc(S(=O)(=O)Nc2cccc3c2O[C@@H](CN(C)Cc2ccc(Oc4ccccc4)cc2)[C@@H](C)CN([C@H](C)CO)C3=O)cc1	< 260 nM
S=c1sc2c(Cl)ncnc2n1-c1ccccc1	< 260 nM
CCN1CCN(c2nc(-c3cccs3)nc3ccccc23)CC1	10400 nM
Cc1cnc(NC(=O)CSc2nnc(C)n2N)s1	< 260 nM
CCN(CC)S(=O)(=O)c1cc(NC(=O)Cn2ncc(Cl)c(Cl)c2=O)ccc1C	< 260 nM
Cn1c(SCC(=O)c2ccccc2)nnc1-c1ccccn1	< 260 nM
Cc1ccc(NC(=O)Cn2ncc(Cl)c(Cl)c2=O)cc1S(=O)(=O)N1CCCCC1	< 260 nM
CCOc1ccc(NC(=O)Nc2cc(OCC(F)(F)F)cc(OCC(F)(F)F)c2)cc1	8810 nM
FC(F)(F)c1nnc2c(Sc3ccccn3)nc3ccccc3n12	8850 nM
Cc1cc(Nc2ccc3c(c2)OCCO3)c2ccccc2n1	< 260 nM
O=[N+]([O-])c1cccnc1S(=O)(=O)c1ccccc1	< 260 nM
COc1ccc(S(=O)(=O)Nc2ccc3c(c2)C(=O)N([C@@H](C)CO)C[C@H](C)[C@@H](CN(C)Cc2ccc(C(F)(F)F)cc2)OCCCC[C@H](C)O3)cc1	< 260 nM
C[C@H](CO)N1C[C@H](C)[C@H](CN(C)Cc2ccc(C(F)(F)F)cc2)OCCCC[C@H](C)Oc2ccc(NS(=O)(=O)c3ccccc3)cc2C1=O	< 260 nM
COc1cc(OC)cc(C(=O)NCC(=O)OCC(=O)c2cc(C)n(Cc3ccco3)c2C)c1	< 260 nM
C[C@]12CCC3C(CCC4=CC(O)CC[C@@]43/C=N/O)C1(O)CCC2C1=CC(=O)OC1 (stereo not given in full)	< 260 nM
C[C@@H]1CN([C@@H](C)CO)C(=O)Cc2cc(NS(=O)(=O)c3ccc(Cl)cc3)ccc2O[C@H]1CN(C)Cc1ccc(Oc2ccccc2)cc1	< 260 nM
Cc1ccc(S(=O)(=O)N(C)C[C@@H]2Oc3cc(C#Cc4ccncc4)ccc3S(=O)(=O)N([C@H](C)CO)C[C@H]2C)cc1	3050 nM
C[C@@H]1CCCCO[C@@H](CN(C)Cc2ccc(C(F)(F)F)cc2)[C@@H](C)CN([C@@H](C)CO)C(=O)c2cc(NS(=O)(=O)c3ccccc3)ccc2O1	< 260 nM
C[C@@H]1CCCCO[C@H](CN(C)Cc2ccc(C(F)(F)F)cc2)[C@H](C)CN([C@H](C)CO)C(=O)c2cc(NS(=O)(=O)c3cccs3)ccc2O1	< 260 nM
C[C@@H]1CN([C@@H](C)CO)C(=O)Cc2cc(NC(=O)NC3CCCCC3)ccc2O[C@@H]1CN(C)Cc1ccc(-c2ccccc2)cc1	27800 nM
COc1ccc(NC(=O)c2c(Nc3ccccc3)sc(C(=O)c3ccc(F)cc3)c2N)cc1	< 260 nM
Cc1ccc(NC(=O)CN(C)C(=O)Cn2ncc(Cl)c(Cl)c2=O)cc1	< 260 nM
CCC(C)(O)C(=O)OC1C(=O)OC2CC3C(C)=CC(=O)C(O)C3(C)C3C4(O)OCC23C1C(C)C4O (stereo not given)	8840 nM
CCOC(=O)Nc1ccc2c(c1)N(C(=O)CCN(CC)CC)c1ccccc1S2=O (stereo not given)	< 260 nM
COc1ccc(S(=O)(=O)Nc2ccc3c(c2)CC(=O)N([C@@H](C)CO)C[C@@H](C)[C@@H](CN(C)Cc2ccc(-c4ccccc4)cc2)O3)cc1	< 260 nM

Compound	AC50
C[C@H](CO)N1C[C@H](C)[C@@H](CN(C)CC2CCCCC2)Oc2c(NC(=O)CCCCCC(=O)Nc3ccccc3N)cccc2C1=O	< 260 nM
O=C1CN(C(=O)Cn2ncc(Cl)c(Cl)c2=O)c2ccccc2N1	< 260 nM
O=C(O)c1cccc(COc2ccc3c(c2)CCC3)c1	< 260 nM
COCCn1c(C)cc(C2=NNC(=NC3CC3)SC2)c1C	< 260 nM
Cc1ccc(Cl)cc1N1CCN(C(=O)c2noc(C)c2[N+](=O)[O-])CC1	< 260 nM
Cc1ccc(S(=O)(=O)N(C)C[C@@H]2Oc3cc(C#Cc4ccncc4)ccc3S(=O)(=O)N([C@H](C)CO)C[C@@H]2C)cc1	24200 nM
C[C@@H]1CN([C@H](C)CO)C(=O)Cc2cc(NC(=O)Nc3ccc(F)cc3)ccc2O[C@H]1CN(C)Cc1ccc(Cl)c(Cl)c1	< 260 nM
C[C@H](CO)N1C[C@H](C)[C@@H](CN(C)C(=O)Nc2ccnc(N3CCOCC3)c2)OCc2cnnn2CCCC1=O	< 260 nM
COc1cccc(S(=O)(=O)N2CC[C@H]3[C@@H](CO)N(C)c4ccc(C#Cc5ccc(F)cc5)cc4[C@H]32)c1	34500 nM
O=C(NC1CCCCC1)C(c1cccnc1)N(C(=O)CCl)c1ccc(F)cc1 (stereo not given)	10200 nM
O=C(Nc1ccc(Cl)c(Cl)c1)N[C@@H]1CC[C@H](CCn2cc(C3CCCCC3)nn2)O[C@H]1CO	< 260 nM
C[C@@H]1CCCCO[C@H](CN(C)C(=O)Cc2ccccc2)[C@@H](C)CN([C@@H](C)CO)C(=O)c2cc(NC(=O)Nc3ccc(C(F)(F)F)cc3)ccc2O1	< 260 nM
COc1ccc(F)cc1-c1cc(NC=O)c2ncc(-c3cc(OC)c(OC)c(OC)c3)n2c1	< 260 nM
COc1ccc(CCNc2nnc(Sc3nnnn3-c3ccccc3)s2)cc1OC	8840 nM
O=S(=O)(NCC1CCCO1)c1cnc(Cl)c(Br)c1 (stereo not given)	< 260 nM
COc1ccc(CC2C(=O)NC(C)C(=O)N(C)C3Cc4ccc(cc4)Oc4cc(ccc4O)CC(C(=O)NC(C)C(=O)NC(C)C(=O)N2C)N(C)C3=O)cc1 (stereo not given)	27800 nM
O=C(C(=O)N(Cc1ccccc1)Cc1ccccc1)c1c(-c2ccccc2)[nH]c2ccccc12	< 260 nM
Cc1ccc(C(=O)N/C(=C\c2ccc(-c3ccc(Br)cc3)o2)C(=O)NCCCN(C)C)cc1	9400 nM
C[C@@H]1CN([C@H](C)CO)C(=O)c2cc(NC(=O)Nc3ccc(C(F)(F)F)cc3)ccc2O[C@@H](C)CCCCO[C@H]1CN(C)Cc1ccccc1	< 260 nM
C[C@@H]1CCCCO[C@H](CN(C)Cc2ccc(C(F)(F)F)cc2)[C@H](C)CN([C@@H](C)CO)C(=O)c2cc(NS(=O)(=O)c3cccs3)ccc2O1	33500 nM
CCCn1c(C)cc(C(=O)CN2C(=O)c3ccccc3S2(=O)=O)c1C	< 260 nM
COc1cc(C2C3=C(COC3=O)Oc3cc4c(cc32)OCO4)cc(OC)c1O (stereo not given)	< 260 nM
CCCNC(=O)Nc1ccc2c(c1)OC[C@H](C)N(Cc1ccc(-c3ccccn3)cc1)C[C@@H](C)[C@@H](OC)CN(C)C2=O	< 260 nM
CC1CN(CC(O)COC(c2ccccc2)c2ccccc2)CC(C)O1 (stereo not given)	< 260 nM
C[C@@H]1CCCCO[C@@H](CN(C)C(=O)Nc2cccc3ccccc23)[C@H](C)CN([C@H](C)CO)C(=O)c2cc(NS(=O)(=O)c3ccccc3)ccc2O1	< 260 nM
Cc1ccc(S(=O)(=O)Nc2ccc3c(c2)CC(=O)N([C@H](C)CO)C[C@H](C)[C@H](CN(C)S(=O)(=O)c2ccc(F)cc2)O3)cc1	< 260 nM
